Earlier results as cited in patent US7060463B2 (priority 2001, dated 2006).

Target: GST-Flag-rhARLBD (Macaca mulatta, UniProt Q6QT55)
Sequence (Q6QT55 601-895): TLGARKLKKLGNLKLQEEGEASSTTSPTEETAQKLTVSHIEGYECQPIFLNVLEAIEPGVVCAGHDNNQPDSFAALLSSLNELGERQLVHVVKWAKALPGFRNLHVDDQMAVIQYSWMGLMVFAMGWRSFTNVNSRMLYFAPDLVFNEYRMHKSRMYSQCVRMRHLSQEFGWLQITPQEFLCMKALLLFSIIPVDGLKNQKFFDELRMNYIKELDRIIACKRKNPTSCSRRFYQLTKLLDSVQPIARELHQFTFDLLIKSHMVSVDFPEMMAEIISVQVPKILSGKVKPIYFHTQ

Question: With `C[C@]1(O)CC[C@H]2[C@@H]3CCC4=CC(=O)CCC4=C3C=C[C@@]21C` [R1881, 17b-hydroxy-17-methylestra-4,9,11-trien-3-one] as the compound, how does the IC50 read?
Answer: Its IC50 is roughly 1 nM.
